IC50 data for 22 compounds are collected here from patent US8871767B2, “2-arylimidazo[1,2-B]pyridazine, 2-phenylimidazo[1,2-A]pyridine, and 2-phenylimidazo[1,2-A]pyrazine derivatives” (Hengrui (USA) Ltd., priority 2010, dated 2014).

Read-outs that look alike come from different tables or passages of the source. A value given as a limit tells only on which side of the number the result lay.

Assay [1] relates to Hedgehog pathway activation on 10T1/2/Smo#3 cells (C3H10T1/2 cells transfected with human Smoothened receptor). The assay can be described thus: Hedgehog pathway activation on 10T1/2/Smo#3 cells measured by ALP activity. Format: cell-based. The conditions noted are these: Mus musculus, C3H 10T1/2, 10T1/2/Smo#3 cells. The method, boiled down: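 C3H10T1/2 cells stably expressing human Smoothened were activated with hShh-conditioned medium (10-20%) or 500 nM SAG, with test compounds present. Pathway block read as inhibited ALP activity (4-methylumbelliferyl phosphate fluorescence); viability checked by CellTiter-Blue. IC50 values reported.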

The subject of assay [2] is Hedgehog pathway activation (GLi-luciferase reporter) in Shh Light II reporter cells. The assay can be described thus: Hedgehog pathway activation on Shh Light II reporter cells measured by luciferase activity. The settings on record: Mus musculus, Shh Light II. The class given is cell-based. The method, boiled down: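 Shh Light II reporter cells carrying a hedgehog-responsive GLi-luciferase reporter were stimulated either with 500 nM SAG, a direct Smoothened agonist, or with conditioned media containing human Sonic Hedgehog (hShh). Test compounds were evaluated for blocking this pathway activation, quantified by luciferase activity. Cell viability was monitored in parallel with the Celltiter-Blue® assay.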

Where [3] appears, read: measured by ALP activity, read-out: ALP (IC50, inhibition of Hedgehog pathway activation).
The mark [4] stands for this setting: hShh activation, read-out: Shh (IC50, inhibition of Hedgehog pathway activation).
Setting [5] is: hShh activation, ALP activity, read-out: 10T1/2/Smo#3 ALP activity (hShh Activation).
The mark [6] stands for this setting: SAG activation (500 nM SAG), read-out: Shh Light II luciferase activity (SAG activation).
The mark [7] stands for this setting: hShh activation, read-out: Shh Light II luciferase activity (hShh activation).

For the compound `CC(C)(C)C(=O)Nc1cc(-c2cn3nc(N4CCC(F)(F)C4)ccc3n2)ccc1C(F)(F)F` [Example 236, N-(5-(6-(3,3-difluoropyrrolidin-1-yl)imidazo[1,2-b]pyridazin-2-yl)-2-(trifluoromethyl)phenyl)pivalamide], the IC50 was found to be 100 nM in assay [1] (setting [3]) and 289 nM in assay [2] (setting [4]).

On to `CC(C)(C)C(=O)Nc1cc(-c2cn3nc(N4CCC(O)CC4)ccc3n2)ccc1C(F)(F)F` [Example 237, N-(5-(6-(4-hydroxypiperidin-1-yl)imidazo[1,2-b]pyridazin-2-yl)-2-(trifluoromethyl)phenyl)pivalamide], for which the IC50 in assay [1] (setting [3]) was found to be 211 nM; in assay [2] (setting [4]), 245 nM.

On to `CC(C)(C)C(=O)Nc1cc(-c2cn3nc(-c4ccc(Cl)cc4)ccc3n2)ccc1C(F)(F)F` [Example 238, N-(5-(6-(4-chlorophenyl)imidazo[1,2-b]pyridazin-2-yl)-2-(trifluoromethyl)phenyl)pivalamide], for which the results for the IC50 in assay [1] (setting [3]) and in assay [2] (setting [4]) were 230 nM and 625 nM, respectively.

In the case of `Cc1ccc(-c2ccc3nc(-c4ccc(C(F)(F)F)c(NC(=O)C(C)(C)C)c4)cn3n2)cc1` [Example 239, N-(5-(6-p-tolylimidazo[1,2-b]pyridazin-2-yl)-2-(trifluoromethyl)phenyl)pivalamide], the IC50 in assay [1] (setting [3]) stood at 335 nM; in assay [2] (setting [4]) it was 523 nM.

For `CC(C)(C)C(=O)Nc1cc(-c2cn3nc(-c4ccccc4OC(F)(F)F)ccc3n2)ccc1C(F)(F)F` [Example 240, N-(5-(6-(2-(trifluoromethoxy)phenyl)imidazo[1,2-b]pyridazin-2-yl)-2-(trifluoromethyl)phenyl)pivalamide], the IC50 in assay [1] (setting [3]) came to 70 nM; in assay [2] (setting [4]) it was 326 nM.

Consider `Cc1ccccc1-c1ccc2nc(-c3ccc(C(F)(F)F)c(NC(=O)C(C)(C)C)c3)cn2n1` [Example 241, N-(5-(6-o-tolylimidazo[1,2-b]pyridazin-2-yl)-2-(trifluoromethyl)phenyl)pivalamide], for which the results for the IC50 in assay [1] (setting [3]) and in assay [2] (setting [4]) were 96 nM and 208 nM, respectively.

Turning to `CC(C)(C)C(=O)Nc1cc(-c2cn3nc(-c4cccc(O)c4)ccc3n2)ccc1C(F)(F)F` [Example 242, N-(5-(6-(3-hydroxyphenyl)imidazo[1,2-b]pyridazin-2-yl)-2-(trifluoromethyl)phenyl)pivalamide], the IC50 in assay [1] (setting [3]) is 446 nM; in assay [2] (setting [4]), 402 nM.

With `CC(C)(C)C(=O)Nc1cc(-c2cn3nc(-c4ccc(O)cc4)ccc3n2)ccc1C(F)(F)F` [Example 243, N-(5-(6-(4-hydroxyphenyl)imidazo[1,2-b]pyridazin-2-yl)-2-(trifluoromethyl)phenyl)pivalamide], the values for the IC50 in assay [1] (setting [3]) and in assay [2] (setting [4]) were 295 nM and 306 nM, respectively.

In the case of `COc1ccc(-c2ccc3nc(-c4ccc(C(F)(F)F)c(NC(=O)C(C)(C)C)c4)cn3n2)cc1` [Example 244, N-(5-(6-(4-methoxyphenyl)imidazo[1,2-b]pyridazin-2-yl)-2-(trifluoromethyl)phenyl)pivalamide], the IC50 in assay [1] (setting [3]) is 1630 nM; in assay [2] (setting [4]) it was 308 nM.

For the compound `COc1ccc2nc(-c3ccc(OC(F)(F)F)c(NC(=O)C(C)(C)C)c3)cn2n1` [Example 247, N-(5-(6-methoxyimidazo[1,2-b]pyridazin-2-yl)-2-(trifluoromethoxy)phenyl)pivalamide], the IC50 in assay [1] (setting [5]) was less than 300 nM; in assay [1] (setting [3]) it was 1860 nM; in assay [2] (setting [6]) it was less than 300 nM; in assay [2] (setting [7]), less than 300 nM.

Turning to `CC(C)(C)C(=O)Nc1cc(-c2cn3nc(-c4ccccc4F)ccc3n2)ccc1OC(F)(F)F` [Example 248, N-(5-(6-(2-fluorophenyl)imidazo[1,2-b]pyridazin-2-yl)-2-(trifluoromethoxy)phenyl)pivalamide], the IC50 is less than 300 nM in assay [1] (setting [5]), 231 nM in assay [1] (setting [3]), 300 to 3000 nM in assay [2] (setting [6]) and 300 to 3000 nM in assay [2] (setting [7]).

`CC(C)Oc1ccc(F)c(-c2ccc3nc(-c4ccc(C(F)(F)F)c(NC(=O)C(C)(C)C)c4)cn3n2)c1` [Example 252, N-(5-(6-(2-fluoro-5-isopropoxyphenyl)imidazo[1,2-b]pyridazin-2-yl)-2-(trifluoromethyl)phenyl)pivalamide]: the IC50 in assay [1] (setting [3]) was 392 nM; in assay [2] (setting [4]), 722 nM.

As for `CCCOc1ccc(F)c(-c2ccc3nc(-c4ccc(C(F)(F)F)c(NC(=O)C(C)(C)C)c4)cn3n2)c1` [Example 253, N-(5-(6-(2-fluoro-5-propoxyphenyl)imidazo[1,2-b]pyridazin-2-yl)-2-(trifluoromethyl)phenyl)pivalamide], the results for the IC50 in assay [1] (setting [3]) and in assay [2] (setting [4]) were 448 nM and 899 nM, respectively.

Consider `CC(=O)Nc1ccccc1-c1ccc2nc(-c3ccc(C(F)(F)F)c(NC(=O)C(C)(C)C)c3)cn2n1` [Example 255, N-(5-(6-(2-acetamidophenyl)imidazo[1,2-b]pyridazin-2-yl)-2-(trifluoromethyl)phenyl)pivalamide], for which the results for the IC50 in assay [1] (setting [3]) and in assay [2] (setting [4]) were 490 nM and 563 nM, respectively.

As to `CN(C)c1cccc(-c2ccc3nc(-c4ccc(C(F)(F)F)c(NC(=O)C(C)(C)C)c4)cn3n2)c1` [Example 256, N-(5-(6-(3-(dimethylamino)phenyl)imidazo[1,2-b]pyridazin-2-yl)-2-(trifluoromethyl)phenyl)pivalamide], the values for the IC50 in assay [1] (setting [3]) and in assay [2] (setting [4]) were 446 nM and 1140 nM, respectively.

On to `Cc1ccc(-c2cn3nc(-c4ccccc4Cl)ccc3n2)cc1NC(=O)C(C)(C)C` [Example 258, N-(5-(6-(2-chlorophenyl)imidazo[1,2-b]pyridazin-2-yl)-2-methylphenyl)pivalamide], for which the IC50 in assay [1] (setting [3]) is 105 nM; in assay [2] (setting [4]), 129 nM.

As for `Cc1ccc(-c2cn3nc(-c4ccccc4C(F)(F)F)ccc3n2)cc1NC(=O)C(C)(C)C` [Example 259, N-(2-methyl-5-(6-(2-(trifluoromethyl)phenyl)imidazo[1,2-b]pyridazin-2-yl)phenyl)pivalamide], the results for the IC50 in assay [1] (setting [3]) and in assay [2] (setting [4]) were 80 nM and 84 nM, respectively.

As for `Cc1ccc(-c2cn3nc(-c4cccc(C(F)(F)F)c4)ccc3n2)cc1NC(=O)C(C)(C)C` [Example 260, N-(2-methyl-5-(6-(3-(trifluoromethyl)phenyl)imidazo[1,2-b]pyridazin-2-yl)phenyl)pivalamide], the IC50 in assay [1] (setting [3]) is 325 nM; in assay [2] (setting [4]) it was 297 nM.

On to `Cc1ccc(-c2cn3nc(-c4cc(F)ccc4F)ccc3n2)cc1NC(=O)C(C)(C)C` [Example 261, N-(5-(6-(2,5-difluorophenyl)imidazo[1,2-b]pyridazin-2-yl)-2-methylphenyl)pivalamide], for which the IC50 in assay [1] (setting [3]) was 91 nM; in assay [2] (setting [4]), 142 nM.

As for `Cc1ccc(-c2cn3nc(-c4cc(Cl)ccc4F)ccc3n2)cc1NC(=O)C(C)(C)C` [Example 262, N-(5-(6-(5-chloro-2-fluorophenyl)imidazo[1,2-b]pyridazin-2-yl)-2-methylphenyl)pivalamide], the IC50 in assay [1] (setting [3]) stood at 103 nM; in assay [2] (setting [4]), 342 nM.

With `Cc1ccc(-c2cn3nc(-c4ccccc4OC(F)(F)F)ccc3n2)cc1NC(=O)C(C)(C)C` [Example 263, N-(2-methyl-5-(6-(2-(trifluoromethoxy)phenyl)imidazo[1,2-b]pyridazin-2-yl)phenyl)pivalamide], the IC50 in assay [1] (setting [3]) was determined as 102 nM; in assay [2] (setting [4]), 228 nM.

For the compound `Cc1ccc(-c2cn3nc(-c4cccc(O)c4)ccc3n2)cc1NC(=O)C(C)(C)C` [Example 264, N-(5-(6-(3-hydroxyphenyl)imidazo[1,2-b]pyridazin-2-yl)-2-methylphenyl)pivalamide], the IC50 is 544 nM in assay [1] (setting [3]) and 2010 nM in assay [2] (setting [4]).
